Values of other authors as cited in patent US20050240051A1, “Dispersing agent or solubilizing agent containing calixarene compound” (Ajinomoto Co., Inc., priority 2002, published 2005).

c12c3c4c5c1c1c6c7c2c2c8c3c3c9c4c4c%10c5c5c1c1c6c6c%11c7c2c2c7c8c3c3c8c9c4c4c9c%10c5c5c1c1c6c6c%11c2c2c7c3c3c8c4c4c9c5c1c1c6c2c3c41 [fullerene]
solubility in hydrocarbon solvents and alcohol solvents: not more than 0.1 mg/ml | solubility in toluene: about 3 mg/ml | solubility in 1-methylnaphthalene (at around normal temperature): about 33 mg/ml
